Assay results as given in US7534914B2, “Substituted methyl aryl or heteroaryl amide compounds” (ReQualia Pharma Inc., priority 2004, dated 2009).

Molecular target: T1, human EP4 receptors (Homo sapiens, UniProt P35408)
T1 construct: expressed in transfected cells
Assay: cAMP assay in human EP4 transfectant
Assay type: cell-based
Settings: HEK293 cells expressing human EP4 receptors, 1 nM PGE2, 0.2 mM IBMX, 37° C. for 10 min
Procedure: cAMP Assay in Human EP4 Transfectant
HEK293 cells expressing human EP4 receptors (hEP4 cells) are maintained in DMEM containing 10% FBS and 500 μg/ml geneticin. For harvesting hEP4 cells, culture medium is aspirated and cells in 75 cm^2 flask are washed with 10 ml of phosphate buffered saline (PBS). Another 10 ml of PBS is added to the cells and incubated for 20 min at room temperature. Human EP4 cells are harvested by pipetting and centrifuged at 300×g for 4 min. Cells are resuspended in DMEM without neutral red at a density of 7×10^5 cells/ml containing 0.2 mM IBMX (PDE inhibitor), 1 nM PGE2 and test compounds in PCR-tubes, and incubated at 37° C. for 10 min. The reaction is stopped by heating at 100° C. for 10 min with thermal cycler. Concentration of cAMP in reaction mixtures is determined with SPA cAMP Kit (Amersham) or cAMP Screen™ (Applied Biosystems) according to the manufacture's instruction. • Reference: Eur. J. Pharmacol. 340 (1997) 227-241. In Vivo Assays Carrageenan Induced Mechanical Hyperalgesia in Rats: […]

T1 sequence (P35408 whole entry): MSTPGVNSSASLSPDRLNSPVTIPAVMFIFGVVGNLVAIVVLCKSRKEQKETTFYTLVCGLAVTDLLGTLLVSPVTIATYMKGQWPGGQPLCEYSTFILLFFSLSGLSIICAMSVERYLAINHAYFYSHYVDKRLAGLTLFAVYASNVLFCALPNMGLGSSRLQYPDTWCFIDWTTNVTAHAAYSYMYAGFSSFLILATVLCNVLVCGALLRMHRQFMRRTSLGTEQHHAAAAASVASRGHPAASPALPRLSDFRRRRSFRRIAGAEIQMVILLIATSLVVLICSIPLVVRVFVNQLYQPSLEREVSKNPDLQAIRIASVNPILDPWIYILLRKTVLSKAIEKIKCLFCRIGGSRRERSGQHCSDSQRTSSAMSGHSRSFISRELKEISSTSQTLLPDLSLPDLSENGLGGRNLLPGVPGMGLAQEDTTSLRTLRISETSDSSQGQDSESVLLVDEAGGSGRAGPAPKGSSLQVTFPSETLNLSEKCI

Row | Structure (SMILES) | IC50
1 | C[C@H](NC(=O)c1cc(Cl)ccc1COc1cccc(Cl)c1)c1ccc(C(=O)O)cc1 [EXAMPLE 2, 4-[(1S)-1-({5-chloro-2-[(3-chlorophenoxy)methyl]benzoyl}amino)ethyl]benzoic Acid] | 11 nM
2 | Cc1ccc(OCc2ccc(Cl)cc2C(=O)N[C@@H](C)c2ccc(C(=O)O)cc2)cc1 [EXAMPLE 13, 4-[(1S)-1-({5-chloro-2-[(4-methylphenoxy)methyl]benzoyl}amino)ethyl]benzoic Acid] | 8.3 nM
3 | C[C@H](NC(=O)c1cc(Cl)ccc1COc1c(F)cccc1F)c1ccc(C(=O)O)cc1 [EXAMPLE 10, 4-[(1S)-1-({5-chloro-2-[(2,6-difluorophenoxy)methyl]benzoyl}amino)ethyl]benzoic Acid] | 24 nM
4 | C[C@H](NC(=O)c1cc(Cl)ccc1COc1cccc(F)c1)c1ccc(C(=O)O)cc1 [EXAMPLE 5, 4-[(1S)-1-({5-chloro-2-[(3-fluorophenoxy)methyl]benzoyl}amino)ethyl]benzoic Acid] | 23 nM
5 | C[C@H](NC(=O)c1cc(Cl)ccc1COc1cncc(F)c1)c1ccc(C(=O)O)cc1 [EXAMPLE 14, 4-{(1S)-1-[(5-chloro-2-{[(5-fluoropyridin-3-yl)oxy]methyl}benzoyl)amino]ethyl}benzoic Acid] | 380 nM
6 | C[C@H](NC(=O)c1cc(Cl)ccc1COc1cc(F)cc(F)c1)c1ccc(C(=O)O)cc1 [EXAMPLE 12, 4-[(1S)-1-({5-chloro-2-[(3,5-difluorophenoxy)methyl]benzoyl}amino)ethyl]benzoic Acid] | 22 nM
7 | C[C@H](NC(=O)c1cc(Cl)ccc1COc1ccccc1F)c1ccc(C(=O)O)cc1 [EXAMPLE 6, 4-[(1S)-1-({5-chloro-2-[(2-fluorophenoxy)methyl]benzoyl}amino)ethyl]benzoic Acid] | 30 nM
8 | C[C@H](NC(=O)c1cc(Cl)ccc1COc1ccc(F)c(F)c1)c1ccc(C(=O)O)cc1 [EXAMPLE 11, 4-[(1S)-1-({5-chloro-2-[(3,4-difluorophenoxy)methyl]benzoyl}amino)ethyl]benzoic Acid] | 16 nM
9 | C[C@H](NC(=O)c1cc(Cl)ccc1COc1cccc(F)c1F)c1ccc(C(=O)O)cc1 [EXAMPLE 7, 4-[(1S)-1-({5-chloro-2-[(2,3-difluorophenoxy)methyl]benzoyl}amino)ethyl]benzoic Acid] | 15 nM
10 | C[C@H](NC(=O)c1cc(Cl)ccc1COc1ccc(F)cc1F)c1ccc(C(=O)O)cc1 [EXAMPLE 8, 4-[(1S)-1-({5-chloro-2-[(2,4-difluorophenoxy)methyl]benzoyl}amino)ethyl]benzoic Acid] | 17 nM
11 | C[C@H](NC(=O)c1cc(Cl)ccc1COc1ccc(Cl)cc1)c1ccc(C(=O)O)cc1 [EXAMPLE 3, 4-[(1S)-1-({5-chloro-2-[(4-chlorophenoxy)methyl]benzoyl}amino)ethyl]benzoic Acid] | 7.5 nM
12 | C[C@H](NC(=O)c1cc(Cl)ccc1COC1CCCC1)c1ccc(C(=O)O)cc1 [EXAMPLE 16, 4-[(1S)-1-({5-chloro-2-[(cyclopentyloxy)methyl]benzoyl}amino)ethyl]benzoic Acid] | 470 nM
13 | CC(C)COCc1ccc(Cl)cc1C(=O)N[C@@H](C)c1ccc(C(=O)O)cc1 [EXAMPLE 17, 4-((1S)-1-{[5-chloro-2-(isobutoxymethyl)benzoyl]amino}ethyl)benzoic Acid] | 180 nM
14 | C[C@H](NC(=O)c1cc(Cl)ccc1COc1ccccc1Cl)c1ccc(C(=O)O)cc1 [EXAMPLE 1, 4-[(1S)-1-({5-chloro-2-[(2-chlorophenoxy)methyl]benzoyl}amino)ethyl]benzoic Acid] | 19 nM
15 | C[C@H](NC(=O)c1cc(Cl)ccc1COc1cncc(Cl)c1)c1ccc(C(=O)O)cc1 [EXAMPLE 15, 4-{(1S)-1-[(5-chloro-2-{[(5-chloropyridin-3-yl)oxy]methyl}benzoyl)amino]ethyl}benzoic Acid] | 160 nM
16 | C[C@H](NC(=O)c1cc(Cl)ccc1COc1cc(F)ccc1F)c1ccc(C(=O)O)cc1 [EXAMPLE 9, 4-[(1S)-1-({5-chloro-2-[(2,5-difluorophenoxy)methyl]benzoyl}amino)ethyl]benzoic Acid] | 41 nM
17 | C[C@H](NC(=O)c1cc(Cl)ccc1COc1ccc(F)cc1)c1ccc(C(=O)O)cc1 [EXAMPLE 4, 4-[(1S)-1-({5-chloro-2-[(4-fluorophenoxy)methyl]benzoyl}amino)ethyl]benzoic Acid] | 15 nM

More lines, now with the values ahead:

Row | IC50 | Structure (SMILES)
18 | 230 nM | C[C@H](NC(=O)c1cc(Cl)ccc1CN(C)c1ccc(F)cn1)c1ccc(C(=O)O)cc1 [EXAMPLE 25, 4-{(1S)-1-[(5-chloro-2-{[(5-fuluoropyridin-2-yl)(methyl)amino]methyl}benzoyl)amino]ethyl}benzoic Acid]
19 | 68 nM | C[C@H](NC(=O)c1cc(Cl)ccc1CN(C)c1ccc(Cl)cn1)c1ccc(C(=O)O)cc1 [EXAMPLE 22, 4-{(1S)-1-[(5-chloro-2-{[(5-chloropyridin-2-yl)(methyl)amino]methyl}benzoyl)amino]ethyl}benzoic Acid]
20 | 220 nM | CNC(=O)c1cccc(OCc2ccc(Cl)cc2C(=O)N[C@@H](C)c2ccc(C(=O)O)cc2)c1 [EXAMPLE 19, 4-((1S)-1-{[5-chloro-2-({3-[(methylamino)carbonyl]phenoxy}methyl)benzoyl]amino}ethyl)benzoic Acid]
21 | 48 nM | C[C@H](NC(=O)c1cc(F)cnc1COc1ccc(Cl)cc1)c1ccc(C(=O)O)cc1 [EXAMPLE 21, 4-{(1S)-1-[({2-[(4-chlorophenoxy)methyl]-5-fluoropyridin-3-yl}carbonyl)amino]ethyl}benzoic Acid]
22 | 91 nM | C[C@H](NC(=O)c1cc(Cl)cnc1COc1ccc(F)cc1)c1ccc(C(=O)O)cc1 [EXAMPLE 27, 4-{(1S)-1-[({5-chloro-2-[(4-fluorophenoxy)methyl]pyridin-3-yl}carbonyl)amino]ethyl}benzoic Acid]
23 | 22 nM | C[C@H](NC(=O)c1cc(Cl)cnc1COc1ccc(Cl)cc1)c1ccc(C(=O)O)cc1 [EXAMPLE 18, 4-{(1S)-1-[({5-chloro-2-[(4-chlorophenoxy)methyl]pyridin-3-yl}carbonyl)amino]ethyl}benzoic Acid]
24 | 56 nM | C[C@H](NC(=O)c1cc(Cl)cnc1COc1cccc(F)c1)c1ccc(C(=O)O)cc1 [EXAMPLE 26, 4-{(1S)-1-[({5-chloro-2-[(3-fluorophenoxy)methyl]pyridin-3-yl}carbonyl)amino]ethyl}benzoic Acid]
25 | 17 nM | C[C@H](NC(=O)c1cc(Cl)cnc1COc1cccc(Cl)c1)c1ccc(C(=O)O)cc1 [EXAMPLE 20, 4-{(1S)-1-[({5-chloro-2-[(3-chlorophenoxy)methyl]pyridin-3-yl}carbonyl)amino]ethyl}benzoic Acid]
26 | 120 nM | C[C@H](NC(=O)c1cc(Cl)ccc1COCC(C)(C)C)c1ccc(C(=O)O)cc1 [EXAMPLE 24, 4-{(1S)-1-({5-chloro-2-[(2,2-dimethylpropoxy)methyl]benzoyl}amino)ethyl}benzoic Acid]
27 | 10 nM | C[C@H](NC(=O)c1cc(Cl)ccc1COCC1CCCCC1)c1ccc(C(=O)O)cc1 [EXAMPLE 23, 4-{(1S)-1-({5-chloro-2-[(cyclohexylmethoxy)methyl]benzoyl}amino)ethyl}benzoic Acid]
